Laboratory results: patent US20260263433A1, “TETRAZOLIUM AND FORMAZAN COMPOUNDS AND METHODS OF MAKING AND USING THE SAME” (ARIZONA BOARD OF REGENTS ON BEHALF OF THE UNIVERSITY OF …, priority 2022, published 2026)

Columns and labels:
A2780 (Ovary) = experiment: Antiproliferative activity, resazurin readout, A2780; type: cell-based, human; conditions: for IC50: 72 h incubation, 0.032-100 μM, mean ± SDM, n = 3
Experimental: (§1) Once the stability data and the information on the reduction and iron binding of the new cohort of tetrazolium salts had been obtained, the antiproliferative activity of the new cohort was assessed in a panel of mammalian cell lines. Cancer cells require more iron than normal cells in order to sustain fast proliferation rate. Therefore, compounds that interfere with intracellular iron availability display antiproliferative activity.^12 Indeed iron chelation and prochelation strategies could provide new therapeutic avenues in anticancer drug discovery.^4
(§2) Cancer cell lines of different origin were selected (ovarian A2780, breast MDAMB-231, colon Caco-2, and lung A549), and a normal cell line (MRC-5, lung fibroblasts) was selected as a comparison.
(§3) Because the colorimetric MTT reagent is one of the compounds being tested in this panel, the reduction of resazurin to brightly fluorescent resorufin was chosen as a readout for the assessment of antiproliferative activity.

MDA-MB-231 (Breast) = experiment: Antiproliferative activity, resazurin readout, MDA-MB-231; type: cell-based, human; conditions: 72 h incubation, 0.032-100 μM, mean ± SDM, n = 3
Experimental: as §1, §2, §3

Caco-2 (Colon) = experiment: Antiproliferative activity, resazurin readout, Caco-2; type: cell-based, human; conditions: 72 h incubation, 0.032-100 μM, mean ± SDM, n = 3
Experimental: as §1, §2, §3

A549 (Lung) = experiment: Antiproliferative activity, resazurin readout, A549; type: cell-based, human; conditions: 72 h incubation, 0.032-100 μM, mean ± SDM, n = 3
Experimental: as §1, §2, §3

MRC-5 (Normal lung) = experiment: Antiproliferative activity, resazurin readout, MRC-5 normal lung fibroblasts; type: cell-based, human; conditions: 72 h incubation, 0.032-100 μM, mean ± SDM, n = 3
Experimental: as §1, §2, §3

[1] = Reduction of tetrazolium salts by cyclic voltammetry in buffered aqueous solution; type: physicochemical; conditions: 50 mM PBS pH 7.4, 25° C., K3[Fe(CN)6] reference, irreversible reduction
Experimental: The reduction of all the tetrazolium salts was investigated by cyclic voltammetry in buffered aqueous solutions (50 mM phosphate buffered saline solution, pH 7.4, K3[Fe(CN)6] as reference E0=0.430 V vs. NHE, 25° C.). Each compound presents an irreversible reduction at a potential that varies considerably depending on the identity of the aryl substituents on the tetrazolium core. Although the peaks are rather broad and likely susceptible to shifts depending on the specific experimental conditions, the peak potentials (Table 1, referenced to NHE) of some of these tetrazolium compounds indicate that they are reduced outside the biologically relevant window. […] On the other hand, the fact that the tetrazolium compounds are harder to reduce relative to MTT (with the exception of the benzothiazole derivative 1b) makes them well suited for intracellular activation in the reducing microenvironment of malignant cells. Compounds 2b, 4b, 6b and 7b are likely to be reduced intracellularly to the formazan species.

[2] = Stability in fetal bovine serum monitored by HPLC; type: in vitro ADME; conditions: 24 h
Experimental: FIGS. 5A and 5B depict the assessment of stability of the tetrazolium-based prochelators in fetal bovine serum (FBS) for a period of 24 h.
The stability of exemplary tetrazolium compounds was tested in fetal bovine serum and monitored by HPLC analysis.

[3] = system: panel of mammalian cell lines; experiment: Antiproliferative activity across the panel of cell lines; type: cell-based, human; conditions: 72 h, tested cell lines
Experimental: as §1, §2, §3

[4] = Fe(II) coordination in buffered aqueous solution (optical absorption changes); type: physicochemical; conditions: absorption 500-800 nm
Experimental: These two compounds were retained in the experiments as controls.
The tetrazolium salts (FIGS. 4A-4B) were synthesized from the formazans by the process outlined in FIG. 4C, which included oxidation with N-bromo-succinimide. For structures featuring a 2-hydroxyphenyl group, the oxidation was carried out on methoxyphenyl precursors and followed by a demethylation step in the presence of BBr3. The tetrazolium compounds were isolated as bromide salts.

[5] = system: A2780 ovarian cancer cells; experiment: Effect of iron supplementation on toxicity, LIVE/DEAD stain, flow cytometry; type: cell-based, human; conditions: compounds 40 μM with or without ferric ammonium citrate 50 μM or holo-transferrin 50 μM, 48 h
Experimental: FIGS. 6A-6B depict the effects of iron supplementation on toxicity in A2780 ovarian cancer cells. The percentage of dead cells was determined using the LIVE/DEAD fixable stain as measured by flow cytometry. FIG. 6A depicts the quantification of dead cells after treating in the presence of test compounds (40 μM) with or without ferric ammonium citrate (FAC, 50 μM) for 48 h. FIG. 6B depicts the quantification of dead cells after treating in the presence of test compounds (40 μM) with or without holo-transferrin (holo-TF, 50 μM) for 48 h. Experiments were conducted in triplicate and the values shown are averages ±standard deviation. **p<0.01, ***p<0.001, ****p<0.0001.
The biological activity of the tetrazolium and formazan compounds was investigated in A2780 cells, in which they presented the highest antiproliferative activity. In particular, experiments were performed to confirm that the antiproliferative activity of these compounds is associated with the availability of intracellular iron.

Row | Compound | IC50 (A2780 (Ovary)) [µM] | IC50 (MDA-MB-231 (Breast)) [µM] | Ered vs. NHE (peak potential Ep) [1] [mV] | IC50 (Caco-2 (Colon)) [µM] | IC50 (A549 (Lung)) [µM] | IC50 (MRC-5 (Normal lung)) [µM] | Antiproliferative activity / toxicity in the cell panel, in words [3] | other results
1 | O=C(O)c1ccc(-n2nc(-c3ccccc3O)nc2-c2ccccc2O)cc1 [DFX, deferasirox, reference compound] |  |  |  |  |  |  |  | IC50 (A2780 (Ovary); Homo sapiens, A2780): 15 ± 0.5 µM; IC50 (MDA-MB-231 (Breast); Homo sapiens, MDA-MB-231): 17 ± 1 µM; IC50 (Caco-2 (Colon); Homo sapiens, Caco-2): 67 ± 2 µM; IC50 (A549 (Lung); Homo sapiens, A549): 21 ± 3 µM; IC50 (MRC-5 (Normal lung); Homo sapiens, MRC5): > 100 µM
2 | [Br-].c1ccc(-c2nn(-c3nc4ccccc4s3)[n+](-c3ccccc3)n2)cc1 [1b] | 23 ± 3 | 21 ± 2 | 207 | 40 ± 3 | 41 ± 3 | 97 ± 10 | moderate antiproliferative activities | Stability in serum [2]: significant degradation
3 | c1ccc(NN=C(N=Nc2cnc3ccccc3n2)c2ccccc2)cc1 [QXF] | 9 ± 2 | 22 ± 3 |  |  |  | 11 ± 2 | sub-micromolar or low-micromolar | 
4 | Cc1nc(N=NC(=NNc2ccccc2)c2ccccc2)sc1C [MTF, reference compound] |  |  |  |  |  |  |  | Iron binding [4]: coordinate Fe(II)
5 | [Br-].c1ccc(-c2nn(-c3nccc4ccccc34)[n+](-c3ccccc3)n2)cc1 [IQT] | 0.5 ± 0.1 |  |  |  |  | 14 ± 2 |  | IC50 values in A2780 cell lines, in words (A2780 (Ovary)): sub-micromolar
6 | Cc1nc(-[n+]2nc(-c3ccccc3)nn2-c2ccccc2)sc1C.[Br-] [MTT, reference compound] | 45 ± 9 | 48 ± 7 | 94 | 92 ± 7 | 44 ± 9 | 32 ± 5 | moderate antiproliferative activities | Stability in serum [2]: significant degradation
7 | c1ccc(NN=C(N=Nc2ccc3ccccc3n2)c2ccccc2)cc1 [QF] | 14 ± 2 | 7 ± 2 |  |  |  | 89 ± 9 | sub-micromolar or low-micromolar | 
8 | [Br-].c1ccc(-c2nn(-c3ccc4ccccc4n3)[n+](-c3ccccc3)n2)cc1 [QT] | 0.8 ± 0.1 | 0.3 ± 0.1 |  |  |  | 3.5 ± 0.8 |  | IC50 values in A2780 cell lines, in words (A2780 (Ovary)): sub-micromolar
9 | Oc1ccccc1C(N=Nc1ccccc1)=NNc1ccccc1 [7a] |  |  |  |  |  |  |  | Iron binding [4]: did not show any indication of iron binding
10 | c1ccc(N=NC(=NNc2ccccc2)c2ccccn2)cc1 [6a] |  |  |  |  |  |  |  | Iron binding [4]: did not show any indication of iron binding
11 | [Br-].c1ccc(-c2nn(-c3ccccn3)[n+](-c3ccccc3)n2)cc1 [2b] | 16 ± 3 | 16 ± 2 | −130 | 13 ± 2 | 17 ± 2 | > 100 | promising antiproliferative activities | Effect of iron supplementation on cell death [5]: could be rescued by iron supplementation
12 | c1ccc(-c2nn(-c3cnc4ccccc4n3)[n+](-c3ccccc3)n2)cc1 [QXT] | 19 ± 2 | 26 ± 3 |  |  |  | 45 ± 8 |  | 
13 | [Br-].c1ccc(-n2nc(-c3ccccn3)n[n+]2-c2ccccc2)cc1 [6b] | 74 ± 4 | > 100 | −241 | > 100 | > 100 | > 100 | low toxicity | Effect of iron supplementation on cell death [5]: not altered by iron supplementation
14 | Oc1ccccc1-c1nn(-c2ccccn2)[n+](-c2ccccc2)n1.[Br-] [4b] | 12 ± 3 | 17 ± 2 | −102 | 29 ± 3 | 28 ± 4 | > 100 | promising antiproliferative activities | Effect of iron supplementation on cell death [5]: could be rescued by iron supplementation
15 | c1ccc(NN=C(N=Nc2nccc3ccccc23)c2ccccc2)cc1 [IQF] | 0.7 ± 0.1 | 1.4 ± 0.5 |  |  |  |  | sub-micromolar or low-micromolar | 
16 | c1ccc(NN=C(N=Nc2ncc3ccccc3n2)c2ccccc2)cc1 [QZF] | 0.6 ± 0.1 | 1.8 ± 0.5 |  |  |  | 4.2 ± 0.3 | sub-micromolar or low-micromolar | 

Second part, led by results:

Row | IC50 (A2780 (Ovary)) [µM] | IC50 (MDA-MB-231 (Breast)) [µM] | Compound | Ered vs. NHE (peak potential Ep) [1] [mV] | IC50 (Caco-2 (Colon)) [µM] | IC50 (A549 (Lung)) [µM] | IC50 (MRC-5 (Normal lung)) [µM] | Antiproliferative activity / toxicity in the cell panel, in words [3] | other results
17 | 74 ± 7 | > 100 | Oc1ccccc1-c1nn(-c2ccccc2)[n+](-c2ccccc2)n1.[Br-] [7b] | −187 | > 100 | > 100 | > 100 | low toxicity | 
18 | 90 ± 10 | > 100 | Oc1ccccc1-n1nc(-c2ccccn2)n[n+]1-c1ccccc1.[Br-] [5b] | −380 | > 100 | > 100 | > 100 | low cytotoxicity | 
19 | > 100 | > 100 | Oc1ccccc1-n1nc(-c2ccccc2)n[n+]1-c1ccccc1.[Br-] [3b] | −328 | > 100 | > 100 | > 100 | low cytotoxicity | 
